# Marks after values point to notes of the source that are not given here.
# Key:
# [1] = test system: TNF-induced death of C57BL/6 mice; assay: TNF-induced mouse lethality assay; format: in vivo; conditions: for Survival (%): C57BL/6 male mice, 20 or 40 mg/kg p.o. 30 min before hTNF 8 μg/kg + D-galactosamine 700 mg/kg i.p., 24 hours; for survival rate of mice compared to the control group: C57BL/6 mice, pre-treated p.o., TNF + D-galactosamine
# Experimental: In this experiment, the TNF-induced mouse death inhibition activity by the compound of the present invention was investigated. To this end, mice were pretreated with the compound of the present invention, and the survival rate of the mice was measured against TNF-induced death.
# In particular, after C57BL/6 mice were fasted for 24 hours, 100 μL of the compounds of Examples 2, 32, 39, 40, 44, 47, and 48 in a buffer composition of 10% DMSO in 90% PBS was orally administered at a concentration of 20 or 40 mg/kg. After 30 minutes, a mixed solution of human recombinant TNF 8 μg/kg and D-galactosamine 700 mg/kg in PBS buffer was intraperitoneally administered at 100 μL per mouse, the survival rate of mice was measured every 3 hours from the time of intraperitoneal administration and the experiment was terminated 24 hours later. The mice were divided into 5 groups, the experiment was repeated 5 times, and the Example compounds used for each experiment are as shown in FIG. 7(a, b).
# [2] = test system: mouse fibroblast L929 cells; assay: TNF-induced apoptosis inhibitory activity in L929 cells (MTS assay); format: cell-based; conditions: TNF 20 ng/mL + actinomycin D, compound 0 to 40 μM, 24 hours, read-out: IC50, inhibition of TNF-induced apoptosis
# Experimental: In this experiment, the TNF-induced apoptosis inhibitory activity by the compound of the present invention was investigated. To this end, mouse fibroblasts were treated with the chromenone and quinolone derivative compounds prepared in the above Examples, and then cell viability was measured by a conventionally known MTS assay.
# Mouse fibroblast L929 cells were purchased from the American Type Culture Collection (ATCC Manassas, Va.), and then cultured in RPMI medium containing 10% Fetal Bovine Serum (FBS) and 1% antibiotics at the incubator in which 5% CO2 and humidity at 37° C. were maintained.
# Mouse fibroblast L929 cells were treated with recombinant TNF and actinomycin D, a sensitizer, to induce apoptosis, with which an assay capable of confirming apoptosis inhibitory activity was established. In particular, apoptosis conditions were induced by adding actinomycin D as a sensitizer and TNF (20 ng/mL) to […], and then L929 cells were pretreated with the compounds of Examples 52, 54, and 55 at a concentration of 0 to 40 μM for 24 hours. After 24 hours, they were treated with MTS for 3 hours, and then the absorbance was measured at 490 nm to calculate IC50 values. % Inhibition of TNF was calculated by the following formula.
# % Inhibition of TNF=(OD value of the group treated with the compound−OD value of the group treated with TNF and actinomycin D)/(OD value of the group treated with actinomycin D−OD value of the group treated with TNF and actinomycin D)×100
# IC50 values were statistically calculated using Prism 6 (GraphPad) (IC50: 50% inhibitory concentration).
# TNF-TNFR2 = TNF-TNFR2 (Homo sapiens, UniProt P01375); assay: TNF-TNFR2 binding inhibition, FRET assay; conditions: for IC50: FRET (HTRF ratio), 0.25 nM TNF, 1 nM His-labeled TNFR2
# Sequence of TNF-TNFR2 (P01375 77-233 limits assumed): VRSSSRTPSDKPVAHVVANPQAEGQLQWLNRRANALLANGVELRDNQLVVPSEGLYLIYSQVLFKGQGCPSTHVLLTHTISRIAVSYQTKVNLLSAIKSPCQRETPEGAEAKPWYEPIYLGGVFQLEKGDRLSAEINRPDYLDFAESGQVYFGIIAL
# Experimental: (§1) In this experiment, the inhibitory activity of the compound of the present invention was evaluated using a fluorescence resonance energy transfer (FRET) assay to measure the binding of TNF-TNFR1 or TNF-TNFR2.
# (§2) In particular, biotin-labeled 0.25 nM TNF, XL-665-labeled streptavidin, 0.25 nM His-labeled TNFR1, 1 nM His-labeled TNFR2, and Europium-Gold-labeled anti-his Ab were used. First, each 2 μL (10% DMSO) of the compounds of Examples 48 and 51 was added in 384 wells. After 4 μL of 0.25 nM TNF was added, 4 μL of each of 0.25 nM His-labeled TNFR1 or 1 nM His-labeled TNFR2 was added thereto and incubated at room temperature for 1 hour. After 1 hour incubation, 5 μL of XL-665-labeled streptavidin and 5 μL of Europium-Gold-labeled anti-his Ab were added and further incubated at room temperature. […] was measured at 622 nm and 665 nm. The reagent used at this time was prepared by dissolving in PPI-europium detection buffer.
# (§3) First, binding inhibitory activity of the compounds of the present invention to TNF and TNFR1 or TNFR2 was evaluated at a single concentration ([…]) of the compounds.
# (§4) Then, IC50 values were obtained with the various concentrations of the compounds of Examples 48 and 51. At this time, the value was confirmed through the HTRF ratio, and the HTRF ratio was calculated by the following formula.
# (§5) IC50 values were statistically calculated using Prism 6 (GraphPad).
# [3] = test system: TNF-cell signal transduction pathway; assay: TNF-cell signal transduction, Western blot in L929 cells; format: cell-based, mouse; conditions: hTNF 10 ng/ml + compound 0.01, 0.1, 1, 10 μM, vs hTNF alone
# Experimental: Second, the inhibition of TNF signal transduction activity of Example 48 was confirmed. In order to examine the TNF-cell signal transduction inhibitory activity by the compound of the present invention, Western blot analysis was performed on proteins of the signal transduction pathway, namely phospho-p65, phospho-IKKα/β, phospho-SAPK/JNK, and phospho-AKT.
# In particular, hTNF alone (10 ng/ml) or a mixture of hTNF and the compound of Example 48 (0.01, 0.1, 1, 10 μM) was incubated for 30 minutes, and then the incubated mixture was applied to mouse fibroblast L929 cells for 10 minutes. After the treatment, Western blot analysis was performed for phospho-p65, phospho-IKKα/β, phospho-SAPK/JNK, and phospho-AKT.
# HEK-Blue TNF cells = assay: Inhibition of TNF response in HEK-Blue TNF cells (SEAP reporter gene assay); format: cell-based; conditions: Homo sapiens, TNF 0.2 ng/mL, absorbance 620 nm
# Experimental: In this experiment, the TNF-inhibitory activity of the compound of the present invention was evaluated in HEK-Blue TNF cells. To this end, the transformed HEK-Blue TNF cells that respond specifically to the binding of TNF to TNFRs on the cell surface were treated with the compound of Example 48, followed by a reporter gene assay.
# HEK-Blue TNF cells are human embryonic kidney cells that were transformed to express SEAP (secreted embryonic alkaline phosphatase) reporter gene having the binding site for activated NF-κB when TNF binds to TNFR on the cell surface and NF-κB is activated in the cell. […]
# An experimental method was used in which SEAP, a reporter gene having the binding site for activated NF-κB in the intracellular signal transduction process, is expressed when human embryonic kidney cells, HEK-Blue TNF cells, are treated with recombinant TNF. In particular, SEAP is expressed when TNF (0.2 ng/mL) is added to HEK-Blue TNF cells, and the degree of color development is measured by treating the SEAP-specific QUANTI-Blue™ solution followed by reading absorbance at 620 nm to obtain IC50 value. The inhibition rate (%) of TNF was calculated by the following formula. […]
# as §5
# TNF-TNFR1 = TNF-TNFR1 (Homo sapiens, UniProt P01375); assay: TNF-TNFR1 binding inhibition, FRET assay; conditions: for IC50: FRET (HTRF ratio), 0.25 nM TNF, 0.25 nM His-labeled TNFR1
# Sequence of TNF-TNFR1 (P01375 77-233 limits assumed): as above
# Experimental: as §1, §2, §3, §4, §5
# RIP1 = RIP1 ubiquitination, immunoprecipitation with TNFR1 in human peripheral blood T cells; format: cell-based; conditions: compound 0.1 μM 24 hours, then TNF 10 minutes, vs hTNF alone
# Experimental: Two experiments were conducted to examine the TNF-cell signal transduction inhibitory activity by the compound of the present invention. First, immunoprecipitation was performed to evaluate the ubiquitination of an upstream protein of the TNF signaling pathway, that is, RIP1.
# In particular, human peripheral blood T cells were treated with the compound of Example 48 (0, 0.1 μM) for 24 hours followed by with TNF for 10 minutes, and then immunoprecipitation was performed with TNFR1 protein.
# [4] = single concentration (10 PM), FIG. 4
compound,measurement,setting,value
"O=C(O)c1c(-c2cc(F)ccc2F)[nH]c2cc(Cl)ccc2c1=O [Example 2, 2-(2,5-difluorophenyl)-3-carboxy-7-chloro-4-(1H)-quinolone]",Survival (%),[1],60%
same,survival rate of mice compared to the control group,[1],increased
"O=C(c1c(-c2cc(F)ccc2F)oc2cc(Cl)ccc2c1=O)N1CCN(C(=O)c2c(-c3cc(F)ccc3F)oc3cc(Cl)ccc3c2=O)CC1 [Example 55, 3,3′-(piperazine-1,4-dicarbonyl)bis(7-chloro-2-(2,5-difluorophenyl)-4H-chromen-4-one)]",IC50,[2],7.63 µM
"COc1c(-c2cc(F)ccc2F)oc2cc(Cl)ccc2c1=O [Example 40, 7-chloro-2-(2,5-difluorophenyl)-3-methoxy-4H-chromen-4-one]",Survival (%),[1],50 * %
same,survival rate of mice compared to the control group,[1],increased
"O=C(NCCNC(=O)c1c(-c2cc(F)ccc2F)oc2cc(Cl)ccc2c1=O)c1c(-c2cc(F)ccc2F)oc2cc(Cl)ccc2c1=O [Example 52, N,N′-(ethane-1,2-diyl)bis(7-chloro-2-(2,5-difluorophenyl)-4-oxo-4H-chromene-3-carboxamide)]",IC50,[2],1.48 µM
"O=C(O)c1c(-c2ccc(OCCOc3ccc(-c4oc5cc(Cl)ccc5c(=O)c4C(=O)O)c(F)c3)cc2F)oc2cc(Cl)ccc2c1=O [Example 48, 2,2′-((ethane-1,2-diylbis(oxy))bis(2-fluoro-4,1-phenylene))bis(7-chloro-4-oxo-4H-chromene-3-carboxylic acid)]",IC50,TNF-TNFR2,3.92 µM
same,"binding inhibitory activity, TNF and TNFR2",TNF-TNFR2; [4],inhibit the binding
same,"binding inhibitory effect compared with SPD304 and Quercetin, TNF-TNFR2",TNF-TNFR2; [4],higher binding inhibitory effect than SPD304
same,Survival (%),[1],50 * %
same,survival rate of mice compared to the control group,[1],increased
same,level of phospho-AKT,[3],reduced
same,level of phospho-IKKα/β,[3],reduced
same,level of phospho-SAPK/JNK,[3],reduced
same,level of phospho-p65,[3],reduced
same,IC50,HEK-Blue TNF cells,9.67 µM
same,IC50,TNF-TNFR1,3.56 µM
same,"binding inhibitory activity, TNF and TNFR1",TNF-TNFR1; [4],inhibit the binding
same,"binding inhibitory effect compared with SPD304 and Quercetin, TNF-TNFR1",TNF-TNFR1; [4],higher binding inhibitory effect than SPD304
same,degree of RIP1 ubiquitination activated by TNF,RIP1,reduced
"COc1c(-c2cc(F)cc(F)c2)oc2cc(F)ccc2c1=O [Example 44, 2-(3,5-difluorophenyl)-7-fluoro-3-methoxy-4H-chromen-4-one]",Survival (%),[1],60 ** %
same,survival rate of mice compared to the control group,[1],increased
"O=C(O)c1c(-c2ccc(OCCOCCOc3ccc(-c4oc5cc(Cl)ccc5c(=O)c4C(=O)O)c(F)c3)cc2F)oc2cc(Cl)ccc2c1=O [Example 51, 2,2′-(((oxybis(ethane-2,1-diyl))bis(oxy))bis(2-fluoro-4,1-phenylene))bis(7-chloro-4-oxo-4H-chromene-3-carboxylic acid)]",IC50,TNF-TNFR2,22.3 µM
same,"binding inhibitory activity, TNF and TNFR2",TNF-TNFR2; [4],inhibit the binding
same,IC50,TNF-TNFR1,14.5 µM
same,"binding inhibitory activity, TNF and TNFR1",TNF-TNFR1; [4],inhibit the binding
"O=C(NCCCCNC(=O)c1c(-c2cc(F)ccc2F)oc2cc(Cl)ccc2c1=O)c1c(-c2cc(F)ccc2F)oc2cc(Cl)ccc2c1=O [Example 54, N,N′-(butane-1,4-diyl)bis(7-chloro-2-(2,5-difluorophenyl)-4-oxo-4H-chromene-3-carboxamide)]",IC50,[2],7.19 µM
"O=c1c(O)c(-c2cc(F)ccc2F)oc2cc(Cl)ccc12 [Example 32, 7-chloro-2-(2,5-difluorophenyl)-3-hydroxy-4H-chromen-4-one]",Survival (%),[1],90 *** %
same,survival rate of mice compared to the control group,[1],increased
"COc1ccc2c(=O)c(O)c(-c3cc(F)cc(F)c3)oc2c1 [Example 39, 2-(3,5-difluorophenyl)-3-hydroxy-7-methoxy-4H-chromen-4-one]",Survival (%),[1],40%
same,survival rate of mice compared to the control group,[1],increased
"COc1ccc2c(=O)c(OC)c(-c3ccc(F)cc3F)oc2c1 [Example 47, 2-(2,4-difluorophenyl)-3,7-dimethoxy-4H-chromen-4-one]",Survival (%),[1],40 * %
same,survival rate of mice compared to the control group,[1],increased

# Source: patent publication US20230271925A1, “NOVEL TNF ACTIVITY INHIBITOR COMPOUND, AND PHARMACEUTICALLY ACCEPTABLE SALT THEREOF” (ILAB, priority 2020, published 2023)
